Tests used:
Caco-2 cell monolayers = settings: Caco-2 monolayers, 250–500 μM; ref Khan et al., 2004; cited from earlier work
[1] = Bidirectional transport in MDCK cell monolayers with selective transporter inhibitors or substrates; assay type: in vitro ADME, canine; settings: dog, Control (no inhibitor or substrate), read-out: ER
Description: (§1) Caco-2, MDCK and MDCK-MRP2 cells were donated by Prof. Yan Xie and Yueming Ma from Shanghai University of Traditional Chinese Medicine. The cells were grown in culture dishes (Corning® Costar, Cambridge, MA, USA) using DMEM supplemented with 10% FBS, 1% NEAA and 1% penicillin-streptomycin solution. The cells were cultured in 5% CO2 and […] with 90% relative humidity at 37°C. The medium was replaced every other day during incubation. The cells were passaged every 3–4 days between 70 and 80% confluence at a 1:5 split ratio using 0.25% trypsin-EDTA. For the transport experiments, the cells from passages between 30 and 45 were seeded at 1 × 10^5 cells/cm^2 onto permeable polycarbonate inserts (0.45 μm pore size, seeding surface of 0.6 cm^2, Millipore, MA, USA) in 24-well plastic plates. The media in the culture plates were changed every other day for the first week after seeding and were replaced daily afterward. […] The cells were used for the transport experiments 21–28 (Caco-2) or 5–7 (MDCK and MDCK-MRP2) days after seeding, and only monolayers with a TEER-value above 420 Ω cm^2 were used during the studies.
(§2) The apical (AP) and basolateral (BL) sides are typical of polarized Caco-2, MDCK and MDCK-MRP2 epithelial cells. Before the experiments, the polarized cell monolayers were washed twice with warm HBSS solution and subsequently preincubated (37°C, 30 min). Afterward, HBSS solution on both sides of the cell monolayers was removed using a mini desktop vacuum pump. […] The final DMSO concentration in the HBSS or drug mixture was below 0.5%. The monolayers were incubated at 37°C, and 100 μL samples were taken at 30, 60, 90, and 120 min from the acceptor compartment and immediately replaced with the same volume of prewarmed fresh blank HBSS. TEER measurements for assessing the membrane integrity took place before and after the experiments.
(§3) The apparent permeability coefficients (Papp) and ER were calculated as Equations (2) and (3): […]
(§4) where dQ/dt is the steady-state flux, A is the membrane surface area, and C0 is the initial drug concentration in the donor compartment. PappBA is the Papp-value measured in BL to AP direction and PappAB is the Papp-value measured in AP to BL direction. It indicated the involvement of an active transport process when the ER-value is above 1.5 (Hubatsch et al., [2007]).

MCTs [2] = test: as above; assay type: in vitro ADME, canine; settings: dog, with phloretin 0.3 mM, + Phloretin 0.3 mM (MCTs)
Description: as §1, §2, §3, §4

PEPT1 = test: as above; assay type: in vitro ADME, canine; settings: dog, with Gly-Sar 10 mM, + Gly-Sar 10 mM (PEPT1)
Description: as §1, §2, §3, §4

OATPs = test: as above; assay type: in vitro ADME, canine; settings: dog, with ES 0.05 mM (50 μM), + ES 0.05 mM (OATPs)
Description: as §1, §2, §3, §4

MCTs [3] = test: in vitro; settings: human, Caco-2, ER, Caco-2, 2 μM, + Phloretin 0.3 mM (MCTs)
Description: as §1, §2, §3, §4

SGLT1 = test: in vitro; settings: human, Caco-2, ER, Caco-2, 2 μM, + Phloridzin 0.5 mM (SGLT1)
Description: as §1, §2, §3, §4

OCTs/OCTNs = test: in vitro; settings: human, Caco-2, ER, Caco-2, 2 μM, + TEA 5 mM (OCTs/OCTNs)
Description: as §1, §2, §3, §4

## COc1ccc2c3c([nH]c2c1)C(C)=NCC3 [Harmaline]
Caco-2 cell monolayers
  efflux ratios (ER): < 1.0
[1]
  efflux ratio at 120 min, 2 μM: 1.03
MCTs [2]
  Papp B→A at 120 min, 2 μM: 23.3 ± 1.4 ×10⁻⁶ cm/s
MCTs [2]; read-out: ER
  efflux ratio at 120 min, 2 μM: 1.15
PEPT1
  Papp A→B at 120 min, 2 μM: 20.9 ± 2.9 ×10⁻⁶ cm/s
  Papp B→A at 120 min, 2 μM: 21.4 ± 1.96 ×10⁻⁶ cm/s
PEPT1; read-out: ER
  efflux ratio at 120 min, 2 μM: 1.03
OATPs
  Papp A→B at 120 min, 2 μM: 19.4 ± 3.23 ×10⁻⁶ cm/s
OATPs; read-out: ER
  efflux ratio at 120 min, 2 μM: 1.07
MCTs [3]
  efflux ratio: 0.95
SGLT1
  efflux ratio: 0.95
OCTs/OCTNs
  efflux ratio: 1.13
